Converted amounts (≈) assume the structure as drawn. Like-named read-outs stand apart in the source and are kept apart here.
Key:
SAS cells = test: SAS CTG proliferation assay (120 h) (HNSCC, wt amplified); format: cell-based
Procedure, shortened: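 SAS cells plated at 300 per well in DMEM:F12 with 10% FCS and left overnight, then given compounds acoustically. After 120 h exposure, viability read by CellTiter-Glo as percent of DMSO control. IC50 from four-parameter non-linear regression.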

[1] = Plasma protein binding assay (PPB), equilibrium dialysis, 10% FCS in PBS; format: in vitro ADME; conditions: bovine, read-out: PPB 10% FCS (% fu)
Procedure, shortened: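 Equilibrium dialysis (5-10 kg/mol cut-off membrane) of 1-10 μmol/L test compound in 10% FCS/PBS against PBS with or without dextran, 3-5 h at 37° C. Compound in each chamber quantified by LC-MS after protein precipitation; fu calculated from Cserum and Cbuffer.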

NCI-H2122 cells = test: NCI-H2122 CTG proliferation assay (120 h) (NSCLC, G12C); format: cell-based; conditions: Homo sapiens
Procedure, shortened: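 NCI-H2122 cells (KRAS G12C NSCLC), 200 per well in RPMI with 10% FCS, were dosed with compound on day 1 and incubated 120 h at 37 °C. Viability was read by CellTiter-Glo luminescence as percent of DMSO control, and IC50 was fitted with a four-parameter model.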

SK-CO-1 cells = test: SK-CO-1 CTG proliferation assay (120 h) (CRC, G12V); format: cell-based; conditions: Homo sapiens; SK-CO-1 cells (CRC, G12V), CTG 120 h
Procedure, shortened: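 SK-CO-1 colorectal cells (KRAS G12V), 500 per well in EMEM + 10% FCS, dosed with compound the day after seeding and grown 120 h at 37 °C. Viability by CellTiter-Glo luminescence as percent of DMSO control; IC50 from four-parameter non-linear regression.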

[2] = Solubility measurement (DMSO solution method), McIlvaine buffer pH 4.5 or 6.8; format: physicochemical; conditions: aqueous buffer, kinetic from dmso stock, DMSO stock diluted to 250 μM, 24 h shaking at ambient temperature
Procedure, shortened: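 DMSO stock diluted into McIlvaine buffer, pH 4.5 or 6.8, to 250 µM final, shaken 24 h at ambient temperature. Precipitate removed by filtration; filtrate quantified by LC-UV against a fully dissolved reference in acetonitrile/water 1:1.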

AsPC-1 cells = test: AsPC-1 CTG proliferation assay (120 h) (pancreatic cancer, G12D); format: cell-based; conditions: Homo sapiens, ASPC1
Procedure, shortened: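 AsPC-1 cells (KRAS G12D), 2000/well in RPMI with 10% FCS, seeded overnight, then treated with compound for 120 h at 37 °C. Viability by CellTiter-Glo luminescence as percent of DMSO control. IC50 from a four-parameter non-linear fit.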

[3] = McIlvaine buffer pH 4.5, read-out: solubility pH 4.5
[4] = McIlvaine buffer pH 6.8, read-out: solubility pH 6.8

| Compound | IC50 (SAS cells) [nM] | fraction unbound [1] | IC50 (NCI-H2122 cells) [nM] | IC50 (SK-CO-1 cells) [nM] | solubility at 24 h [2, 3] [µg/mL] | solubility at 24 h [2, 4] [µg/mL] | IC50 (AsPC-1 cells) [nM] |
| --- | --- | --- | --- | --- | --- | --- | --- |
| C[C@H](Oc1cc(N2CCC(N(C)C)CC2)nc(-c2noc3c2CCC[C@@]32CCCc3sc(N)c(C#N)c32)n1)[C@@H]1CCCN1C [II-48] | 3880 | 0.62 | 3100 | 1070 | > 164 | > 149 | 1490 |
| C[C@H](Oc1cc(-n2ccsc2=O)nc(-c2noc3c2CCC[C@@]32CCCc3sc(N)c(C#N)c32)n1)[C@@H]1CCCN1C [II-135] | 69 | 0.06 | 112 | 29 | 19 (≈ 32.2 µM) | < 1 | 1390 |
